Assay results: patent US20060063784A1, “Method of using substituted pyrazolo [1,5-a] pyrimidines” (priority 2004, published 2006)
Read-outs that look alike come from different tables or passages of the source.

Assays:
[1] = system: 80S14 (p21-deficient) cells; assay: Cytotoxicity assay using isogenic cell lines: IC50 in 80S14 (p21-deficient) cells, SRB; assay type: cell-based, human; settings: Homo sapiens
Procedure, shortened: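 IC50 is the concentration halving proliferation relative to untreated controls, read from SRB absorbance (560 nm) after TCA fixation. Test agent dilutions (5 pM–50 μM or 170 pg/ml–10 μg/ml) were left on p21-deficient 80S14 cells (12,000/well, pre-incubated overnight) for 5 days at 37 °C.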

[2] = system: LoVo Colon cell line; assay: Cytotoxicity assay using LoVo colon cell line, SRB; assay type: cell-based; settings: Homo sapiens, 96 h, read-out: Inhibition of LoVo
Procedure, shortened: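 Growth inhibition read by sulforhodamine B after 4-day compound exposure at 37 °C. Colon LoVo cells plated at 4000 per well in RPMI/10% FBS a day earlier; doses ranged 5 pM-20 μM or 170 pg/ml-10 μg/ml. IC50 is the concentration halving proliferation versus untreated wells.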

[3] = 120 h, 80S14 (p21-deficient) cells, 5 days, SRB, class symbols, read-out: IC50 for 80S14
[4] = Cellular activity in LoVo cell, 4 days incubation, SRB
[5] = 80S14, 120 h, read-out: IC50 for 80S14 (uM)

| Structure (SMILES) | IC50 [1, 3] | IC50 [2, 4] | IC50 [1, 5] | IC50 ([2]; LoVo) |
| --- | --- | --- | --- | --- |
| O=C(c1cccs1)c1cnn2c(-c3cccc(NC(=O)C4CCCCC4)c3)ccnc12 [Example 282, N-{3-[3-(2-Thienylcarbonyl)pyrazolo[1,5-a]pyrimidin-7-yl]phenyl}cyclohexanecarboxamide] | < 1 µM | 100 to 1000 nM | – | – |
| O=C(c1cccs1)c1cnn2c(-c3cccc(NC(=O)C4CCCC4)c3)ccnc12 [Example 283, N-{3-[3-(2-Thienylcarbonyl)pyrazolo[1,5-a]pyrimidin-7-yl]phenyl}cyclopentanecarboxamide] | < 1 µM | < 100 nM | – | – |
| O=C(Nc1cccc(-c2ccnc3c(C(=O)c4cccs4)cnn23)c1)c1ccccc1 [Example 284, N-{3-[3-(2-Thienylcarbonyl)pyrazolo[1,5-a]pyrimidin-7-yl]phenyl}benzamide] | < 1 µM | < 100 nM | – | – |
| O=C(Nc1cccc(-c2ccnc3c(C(=O)c4cccs4)cnn23)c1)c1ccco1 [Example 285, N-{3-[3-(2-Thienylcarbonyl)pyrazolo[1,5-a]pyrimidin-7-yl]phenyl}-2-furamide] | < 1 µM | < 100 nM | – | – |
| O=C(Nc1cccc(-c2ccnc3c(C(=O)c4cccs4)cnn23)c1)c1cccnc1 [Example 290, N-{3-[3-(2-Thienylcarbonyl)pyrazolo[1,5-a]pyrimidin-7-yl]phenyl}nicotinamide] | < 1 µM | 100 to 1000 nM | – | – |
| CC(C)OC(=O)Nc1cccc(-c2ccnc3c(C(=O)c4ccsc4)cnn23)c1 [Example 293, Isopropyl 3-[3-(3-thienylcarbonyl)pyrazolo[1,5-a]pyrimidin-7-yl]phenylcarbamate] | – | – | < 1 µM | < 100 nM |
| CC(C)CC(=O)Nc1cccc(-c2ccnc3c(C(=O)c4ccsc4)cnn23)c1 [Example 297, 3-Methyl-N-{3-[3-(3-thienylcarbonyl)pyrazolo[1,5-a]pyrimidin-7-yl]phenyl}butanamide] | – | – | < 1 µM | < 100 nM |
| O=C(CC1CCCC1)Nc1cccc(-c2ccnc3c(C(=O)c4ccco4)cnn23)c1 [Example 303, 2-Cyclopentyl-N-{3-[3-(2-furoyl)pyrazolo[1,5-a]pyrimidin-7-yl]phenyl}acetamide] | < 1 µM | < 100 nM | – | – |
| Cc1ccc(-c2ccnc3c(C(=O)c4cccs4)cnn23)cc1NC(=O)NC(C)C [Example 311, N-Isopropyl-N′-{2-methyl-5-[3-(2-thienylcarbonyl)pyrazolo[1,5-a]pyrimidin-7-yl]phenyl}urea] | < 1 µM | < 100 nM | – | – |
| O=C(Nc1cc(-c2ccnc3c(C(=O)c4cccs4)cnn23)ccc1Cl)c1ccccc1 [Example 312, N-{2-Chloro-5-[3-(2-thienylcarbonyl)pyrazolo[1,5-a]pyrimidin-7-yl]phenyl}benzamide] | < 1 µM | < 100 nM | – | – |
| CC(C)CC(=O)Nc1cc(-c2ccnc3c(C(=O)c4cccs4)cnn23)ccc1Cl [Example 313, N-{2-Chloro-5-[3-(2-thienylcarbonyl)pyrazolo[1,5-a]pyrimidin-7-yl]phenyl}-3-Methylbutanamide] | – | – | < 1 µM | < 100 nM |
| Cc1ccc(-c2ccnc3c(C(=O)c4cccs4)cnn23)cc1NC(=O)OC(C)C [Example 314, Isopropyl 2-methyl-5-[3-(2-thienylcarbonyl)pyrazolo[1,5-a]pyrimidin-7-yl]phenylcarbamate] | – | – | < 1 µM | < 100 nM |
| CC(C)CC(=O)Nc1cncc(-c2ccnc3c(C(=O)c4cccs4)cnn23)c1 [Example 324, 3-Methyl-N-{5-[3-(2-thienylcarbonyl)pyrazolo[1,5-a]pyrimidin-7-yl]-3-pyridinyl}butanamide] | 1 to 10 µM | 100 to 1000 nM | – | – |
| O=C(c1cccs1)c1cnn2c(-c3csc([N+](=O)[O-])c3)ccnc12 [Example 328, [7-(5-Nitro-3-thienyl)pyrazolo[1,5-a]pyrimidin-3-yl](2-thienyl)methanone] | 1 to 10 µM | 100 to 1000 nM | – | – |
| CC(C)NC(=O)Nc1ccc(-c2ccnc3c(C(=O)c4cccs4)cnn23)s1 [Example 329, N-Isopropyl-N′-{5-[3-(thien-2-ylcarbonyl)pyrazolo[1,5-a]pyrimidin-7-yl]thien-2-yl}urea] | 1 to 10 µM | 100 to 1000 nM | – | – |
| Nc1cc(-c2ccnc3c(C(=O)c4cccs4)cnn23)cs1 [Example 331, [7-(5-Aminothien-3-yl)pyrazolo[1,5-a]pyrimidin-3-yl](thien-2-yl)methanone] | 1 to 10 µM | 1000 to 20000 nM | – | – |
| CCOC(=S)Nc1cccc(-c2ccnc3c(C(=O)c4cccs4)cnn23)c1 [Example 332, O-Ethyl 3-[3-(thien-2-ylcarbonyl)pyrazolo[1,5-a]pyrimidin-7-yl]phenylthiocarbamate] | < 1 µM | < 100 nM | – | – |
| O=C(c1cccs1)c1cnn2c(-c3cccc(NC(=S)Nc4ccccc4)c3)ccnc12 [Example 334, N-Phenyl-N′-{3-[3-(thien-2-ylcarbonyl)pyrazolo[1,5-a]pyrimidin-7-yl]phenyl}thiourea] | < 1 µM | 100 to 1000 nM | – | – |
| CC(C)OC(=O)Nc1ccc(Cl)c(-c2ccnc3c(C(=O)c4cccs4)cnn23)c1 [Example 335, Isopropyl 4-chloro-3-[3-(thien-2-ylcarbonyl)pyrazolo[1,5-a]pyrimidin-7-yl]phenylcarbamate] | – | – | < 1 µM | 100 to 1000 nM |
| O=C(c1nccs1)c1cnn2c(-c3cccc(NC(=O)C4CC4)c3)ccnc12 [Example 338, N-{3-[3-(1,3-Thiazol-2-ylcarbonyl)pyrazolo[1,5-a]pyrimidin-7-yl]phenyl}cyclopropanecarboxamide] | 1 to 10 µM | 100 to 1000 nM | – | – |
| CC(C)CC(=O)Nc1ccc(Cl)c(-c2ccnc3c(C(=O)c4cccs4)cnn23)c1 [Example 339, N-{4-Chloro-3-[3-(thien-2-ylcarbonyl)pyrazolo[1,5-a]pyrimidin-7-yl]phenyl}-3-methylbutanamide] | – | – | 1 to 10 µM | 100 to 1000 nM |
| O=C(Nc1ccc(Cl)c(-c2ccnc3c(C(=O)c4cccs4)cnn23)c1)c1ccccc1 [Example 341, N-{4-Chloro-3-[3-(thien-2-ylcarbonyl)pyrazolo[1,5-a]pyrimidin-7-yl]phenyl}benzamide] | 1 to 10 µM | 100 to 1000 nM | – | – |
| CC(C)CC(=O)Nc1cc(-c2ccnc3c(C(=O)c4cccs4)cnn23)ccc1F [Example 342, N-{2-Fluoro-5-[3-(thien-2-ylcarbonyl)pyrazolo[1,5-a]pyrimidin-7-yl]phenyl}-3-methylbutanamide] | – | – | < 1 µM | < 100 nM |
| CC(C)CC(=O)Nc1ccc(-c2ccnc3c(C(=O)c4cccs4)cnn23)s1 [Example 343, 3-Methyl-N-{5-[3-(thien-2-ylcarbonyl)pyrazolo[1,5-a]pyrimidin-7-yl]thien-2-yl}butanamide] | 1 to 10 µM | 1000 to 20000 nM | – | – |
| CC(C)OC(=O)Nc1ccc(-c2ccnc3c(C(=O)c4cccs4)cnn23)s1 [Example 344, Isopropyl 5-[3-(thien-2-ylcarbonyl)pyrazolo[1,5-a]pyrimidin-7-yl]thien-2-ylcarbamate] | 1 to 10 µM | 1000 to 20000 nM | – | – |
| Nc1ccc(-c2ccnc3c(C(=O)c4cccs4)cnn23)s1 [Example 345, [7-(5-Aminothien-2-yl)pyrazolo[1,5-a]pyrimidin-3-yl](thien-2-yl)methanone] | 10 to 50 µM | 1000 to 20000 nM | – | – |
| O=C(CCCCl)Nc1cccc(-c2ccnc3c(C(=O)c4cccs4)cnn23)c1 [Example 346, 4-Chloro-N-{3-[3-(thien-2-ylcarbonyl)pyrazolo[1,5-a]pyrimidin-7-yl]phenyl}butanamide] | 1 to 10 µM | 100 to 1000 nM | – | – |
